We go through two molecules from US9789202B2, “Method for treating cancer using an interferon alpha conjugate” (HANMI SCIENCE CO., LTD., priority 2011, dated 2017).

In experiment [1] the test system is Daudi cells. Briefly: In vitro test on anti-proliferative efficacy in Daudi cells (CCK-8). It counts as cell-based, human. Particulars: inhibition of Daudi cell proliferation, incubation 72 hours, CCK-8 absorbance at 450 nm. The method, then: Daudi cells were used, and RPMI1640 supplemented with 10% FBS and 10% PS was used as a culture medium and an experimental medium. Interferon alpha and interferon alpha conjugate of the present invention were diluted 4-fold with the experimental medium for 10 concentrations in 96-well round bottom plates. Each 50 μL of the diluted experimental medium was transferred to 96-well flat bottom plates. Daudi cells were centrifuged at 1000 rpm for 5 minutes, and then washed with 50 mL of PBS in a cornical tube. The cells were centrifuged at 1000 rpm for 5 minutes, and the experimental medium was added thereto, followed by counting the number of cells. Daudi cells were diluted to a concentration of 5×10^5 cell/mL, and then 100 μL was added to each well, followed by incubation at 37° C. for 72 hours. Then, 20 μL of CCK-8 was added to each well, and after 3 hours, absorbance was measured at 450 nm.
In vitro inhibitory effects of interferon alpha and interferon alpha conjugate of the present invention (long-acting interferon alpha conjugate) on cancer cell proliferation were examined by EC50 (Table 1, FIG. 1).

Experiment [2] relates to human ovarian cancer cells (SK-OV-3). Briefly: In vivo anti-cancer effect in nude mice subcutaneously transplanted with human ovarian cancer cells (SK-OV-3). More on the design: species or system Athymic BALB/c nude mice. Particulars: SK-OV-3 xenograft, 4 weeks, subcutaneous injection; interferon alpha 30 mcg/kg (Q1D*5)*4 weeks; PEG interferon alpha and conjugate 150 mcg/kg QW x 4 weeks. As for the experimental part: In order to measure the in vivo anti-cancer effect of the interferon alpha conjugate prepared in Example 1, changes in the tumor size were examined in the mice subcutaneously transplanted with human ovarian cancer cells (SK-OV-3).
5-week old Athymic BALB/c nude mice were subcutaneously injected with 1×10^8/4 mL of SK-OV-3 cells cultured in vitro, and then cultured. Thereafter, the mice were subcutaneously transplanted with solid cancer having a size of 30 mm^2. Then, the mice were divided into 4 groups (G1, G2, G3, G4) of five mice each according to the size of cancer subcutaneously transplanted.
Single administrations of a control group (Vehicle), interferon alpha (30 mcg/kg, Q1D×5 times×4 weeks, subcutaneous injection), PEG-modified interferon alpha (150 mcg/kg, QW×4 weeks, subcutaneous injection), and interferon alpha conjugate of the present invention (150 mcg/kg, QW×4 weeks, subcutaneous injection) to the groups were performed. After administration of the experimental substances, changes in the tumor size of each group were measured for 4 weeks, and tumor inhibition rate relative to the control group was determined (Table 2).
Background: In xenograft studies the graft and the host belong to different species.

In experiment [3] the test system is human pancreatic cancer cells (BxPC3). Briefly: In vivo anti-cancer effect in nude mice subcutaneously transplanted with human pancreatic cancer cells (BxPC3). Particulars: BxPC3 xenograft, 4 weeks; gemcitabine 30 mg/kg Q3D x 4 weeks i.v.; conjugate or PEG interferon alpha 30 mcg/kg QW x 4 weeks s.c.; combination at the same doses. Also noted: species or system Athymic BALB/c nude mice. The method, then: In order to measure the in vivo anti-cancer effect of the interferon alpha conjugate prepared in Example 1, changes in the tumor size were examined in the mice subcutaneously transplanted with human pancreatic cancer cells (BxPC3). 5-week old Athymic BALB/c nude mice were subcutaneously injected with 1×10^8/4 mL of BxPC3 cells cultured in vitro, and then cultured. […] After administration of the experimental substances, changes in the tumor size of each group were measured for 4 weeks, and tumor inhibition rate relative to the control group was determined (Table 3).

Experiment [4] concerns human pancreatic cancer cells (Panc-1). Nature of the experiment: In vivo anti-cancer effect in nude mice subcutaneously transplanted with human pancreatic cancer cells (Panc-1). Also noted: species or system Athymic BALB/c nude mice. Conditions: Panc-1 xenograft, measured for 4 weeks; gemcitabine 40 mg/kg Q3D x 3 weeks i.v.; conjugate or PEG interferon alpha 30 mcg/kg QW x 3 weeks s.c.; combination at the same doses.
Method: 5-week old Athymic BALB/c nude mice were subcutaneously injected with 1×10^8/4 mL of Panc-1 cells cultured in vitro, and then cultured. Thereafter, the mice were subcutaneously transplanted with solid cancer having a size of 30 mm^2. Then, the mice were divided into 5 groups (G1, G2, G3, G4, G5) of six mice each according to the size of cancer subcutaneously transplanted.
Single administrations of a control group (Vehicle), gemcitabine (40 mg/kg, Q3D, 3 weeks, intravenous injection), PEG-modified interferon alpha (30 mcg/kg, QW×3 weeks, subcutaneous injection), and interferon alpha conjugate of the present invention (30 mcg/kg, QW, 3 weeks, subcutaneous injection), and co-administration of gemcitabine (40 mg/kg, Q3D, 3 weeks, intravenous injection) and interferon alpha conjugate of the present invention (30 mcg/kg, QW, 3 weeks, subcutaneous injection) to the groups were performed. After administration of the experimental substances for 3 weeks, changes in the tumor size of each group were measured for 4 weeks, and tumor inhibition rate relative to the control group was determined (Table 4).

Experiment [5] concerns human pancreatic cancer cells (Miapaca-2). Briefly: In vivo anti-cancer effect in nude mice subcutaneously transplanted with human pancreatic cancer cells (Miapaca-2). Also noted: species or system Athymic BALB/c nude mice. Conditions: Miapaca-2 xenograft, measured for 4 weeks; gemcitabine 40 mg/kg Q3D x 4 weeks i.v.; conjugate or PEG interferon alpha 30 mcg/kg QW x 4 weeks s.c.; combinations at the same doses.
Method: 5-week old Athymic BALB/c nude mice were subcutaneously injected with 1×10^8/4 mL of Miapaca-2 cells cultured in vitro, and then cultured. Thereafter, the mice were subcutaneously transplanted with solid cancer having a size of 30 mm^2. Then, the mice were divided into 5 groups (G1, G2, G3, G4, G5) of seven mice each according to the size of cancer subcutaneously transplanted.
Single administrations of a control group (Vehicle), gemcitabine (40 mg/kg, Q3D, 3 weeks, intravenous injection), PEG-modified interferon alpha (30 mcg/kg, QW×4 weeks, subcutaneous injection), and interferon alpha conjugate of the present invention (30 mcg/kg, QW, 4 weeks, subcutaneous injection), and co-administration of gemcitabine (40 mg/kg, Q3D, 4 weeks, intravenous injection) and interferon alpha conjugate of the present invention (30 mcg/kg, QW, 4 weeks, subcutaneous injection) to the groups were performed. After administration of the experimental substances for 3 weeks, changes in the tumor size of each group were measured for 4 weeks, and tumor inhibition rate relative to the control group was determined (Table 5).

Experiment [6] deals with pancreatic cancer. Particulars: cited from earlier work.

One may read the EC50 as the midpoint of the concentration-response curve. Higher therefore signals lower potency in that assay.

“Interferon alpha: interferon alpha prepared according to Korean Patent No. 10-0360594; human interferon alpha-2b” showed an EC50 in experiment [1] of 0.0217 ng/mL. Besides, the “Tumor inhibition rate (%, relative to vehicle)” value in experiment [2] came out at 63.84%.

For the molecule `Nc1ccn([C@@H]2O[C@H](CO)[C@@H](O)C2(F)F)c(=O)n1` [Gemcitabine, 2′-deoxy-2′,2′-difluoro cytidine], the “Tumor inhibition rate (%, relative to vehicle)” value is 20% in experiment [3], 60% in experiment [4] and 17% in experiment [5]. Further, the median overall survival in experiment [6] (advanced pancreatic cancer, single administration) is reported as 5.7 months. For the same molecule, the “1-year survival rate of pancreatic cancer patients” value in experiment [6] (metastatic pancreatic cancer) is on record as 18%.
